Results taken from patent US8975235B2, “Lysophosphatidic acid receptor antagonists” (InterMune, Inc., priority 2011, dated 2015).

Tests used:
Format in all cases: cell-based
Human LPA1 [1] = molecular target: T1, Human LPA1 (Homo sapiens, UniProt Q92633); assay: LPA1 calcium flux assay; parameters: the full-length cDNA for human LPA1 is obtained by PCR of the reverse transcription reaction; expressed in transfected cells; host or cells: CHO; conditions: human LPA1 expressing CHO cells; stimulated with 10 nM LPA; read-out: Ca Flux LPA1 IC50
T1 sequence (Q92633 whole entry): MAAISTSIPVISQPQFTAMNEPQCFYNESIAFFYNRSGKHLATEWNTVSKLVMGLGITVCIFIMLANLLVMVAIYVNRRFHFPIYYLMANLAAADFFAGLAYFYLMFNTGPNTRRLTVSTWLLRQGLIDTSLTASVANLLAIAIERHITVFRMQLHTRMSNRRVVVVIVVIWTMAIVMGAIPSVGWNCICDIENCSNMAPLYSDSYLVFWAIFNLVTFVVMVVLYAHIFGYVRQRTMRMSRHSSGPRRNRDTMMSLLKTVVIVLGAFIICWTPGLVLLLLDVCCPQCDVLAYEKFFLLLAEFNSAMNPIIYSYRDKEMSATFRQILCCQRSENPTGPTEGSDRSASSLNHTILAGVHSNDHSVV
Method: Establishment of a CHO Cell Line Stably Expressing Human LPA1
A 1.1 kb cDNA encoding the human LPA1 receptor is cloned from human lung. Human lung RNA (Clontech Laboratories, Inc. USA) is reverse transcribed using the RETROscript kit (Ambion, Inc.) and the full-length cDNA for human LPA1 is obtained by PCR of the reverse transcription reaction. The nucleotide sequence of the cloned human LPA1 is determined by sequencing and is confirmed to be identical to the published human LPA1 sequence (An et al. Biochem. Biophys. Res. Commun. 231:619 (1997). The cDNA is cloned into the pcDNA5 pcDNA5/FRT expression plasmid and is transfected in CHO cells using lipofectamine 2000 (Invitrogen Corp., USA). Clones stably expressing human LPA1 are selected using hygromycin and identified as cells that show Ca-influx in response to LPA.
(§1) LPA1 and LPA3 Calcium Flux Assays
(§2) Human LPA1 or LPA3 expressing CHO cells were seeded at 20,000-45,000 cells per well in a 96-well poly-D-lysine coated plate one or two days before the assay. Prior to the assay, the cells were washed once with PBS and then cultured in serum-free media overnight. On the day of the assay, a calcium indicator dye (Calcium 4, Molecular Devices) in assay buffer (HBSS with Ca^2+ and Mg^2+ and containing 20 mM Hepes and 0.3% fatty-acid free human serum albumin) was added to each well and incubation continued for 1 hour at 37° C. 10 μl of test compounds in 2.5% DMSO were added to the cells and incubation continued at room temperature for 30 minutes. Cells were then stimulated by the addition of 10 nM LPA and intracellular Ca^2+ measured using the Flexstation 3 (Molecular Devices). IC50s were determined using Graphpad prism analysis of drug titration curves.

Human LPA1 [2] = molecular target: T1, Human LPA1; assay: Beta-Arrestin based assay for human LPA1R antagonists (PathHunter); parameters: host or cells: CHO; conditions: CHO cells stably expressing ProLink tagged human LPA1R; agonist LPA 0.5 micromolar
How it was run: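 CHO cells stably expressing ProLink-tagged human LPA1R with β-arrestin–EA fusion, assayed by β-galactosidase complementation. Antagonists tested against 0.5 micromolar LPA ([…]), in quadruplicate. End-point luminescence fitted to a 4-parameter logistic to give IC50.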

Human LPA3 = molecular target: T2, Human LPA3 (Homo sapiens, UniProt Q9UBY5); assay: LPA3 calcium flux assay; conditions: human LPA3 expressing CHO cells; stimulated with 10 nM LPA; read-out: Ca Flux LPA3 IC50
T2 construct: The full-length cDNA fragment for human LPA3 is obtained by PCR from the vector; expressed in transfected cells; host or cells: CHO
T2 sequence (Q9UBY5 1-353): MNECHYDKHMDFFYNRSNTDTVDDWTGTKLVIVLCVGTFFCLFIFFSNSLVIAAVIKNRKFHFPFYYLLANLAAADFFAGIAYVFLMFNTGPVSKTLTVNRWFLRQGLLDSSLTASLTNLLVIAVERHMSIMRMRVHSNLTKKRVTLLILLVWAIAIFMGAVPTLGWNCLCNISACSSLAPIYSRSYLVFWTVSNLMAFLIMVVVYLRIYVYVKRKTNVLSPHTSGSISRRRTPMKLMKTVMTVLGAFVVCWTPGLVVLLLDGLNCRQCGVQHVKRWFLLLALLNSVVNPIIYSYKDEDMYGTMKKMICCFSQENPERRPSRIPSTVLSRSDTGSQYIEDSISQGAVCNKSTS
Method: Establishment of a CHO Cell Line Stably Expressing Human LPA3
A vector containing the human LPA3 receptor cDNA is obtained from the Missouri S&T cDNA Resource Center (www.cdna.org). The full-length cDNA fragment for human LPA3 is obtained by PCR from the vector. The nucleotide sequence of the cloned human LPA3 is determined by sequencing and is confirmed to be identical to the published human LPA3 sequence (NCBI accession number NM_012152). The cDNA is cloned into the pcDNA5 pcDNA5/FRT expression plasmid and is transfected in CHO cells using lipofectamine 2000 (Invitrogen Corp., USA). Clones stably expressing human LPA3 are selected using hygromycin and identified as cells that show Ca-influx in response to LPA.
as §1, §2

SMILES	IC50 (Human LPA1 [1]) [nM]	EC50 (Human LPA1 [2]) [nM]	IC50 (Human LPA3) [nM]
Cc1nsc(C#Cc2ccc(C3(C(=O)O)CC3)cc2)c1NC(=O)O[C@H](C)c1ccccc1 [Compound 82]	> 500	50 to 500	
C[C@@H](OC(=O)Nc1c(-c2ccc(-c3ccc(C4(C(=O)O)CC4)cc3)cc2)oc2ccc(F)cc12)c1ccccc1Cl [Compound 60]	> 500	50 to 500	
Cc1nsc(-c2ccc(-c3ccc(C(C(=O)O)c4ccccc4)cc3)cc2)c1NC(=O)O[C@H](C)c1ccccc1Cl (single isomer, unassigned) [Compound 71]	> 500	50 to 500	
Cc1noc(-c2ccc(-c3ccc(CC(=O)O)cc3)cc2)c1NS(=O)(=O)c1ccccc1 [Compound 19]	> 500	> 500	
Cc1nsc(-c2ccc(-c3ccc(C4(C(=O)O)COC4)cc3)cc2)c1NC(=O)O[C@H](C)c1ccccc1 [Compound 241]	50 to 500	50 to 500	
C[C@@H](OC(=O)Nc1ccn(-c2ccc(-c3ccc(C4(C(=O)O)CC4)cc3)cc2)n1)c1ccccc1Cl [Compound 68]	> 500	> 500	
Cc1noc(-c2ccc(-c3ccc(C4CCOCC4C(=O)O)cc3)cc2)c1NC(=O)O[C@H](C)c1ccccc1Cl (stereo partly drawn) [Compound 79]	50 to 500	< 50	
Cc1nsc(-c2ccc(-c3ccc(C4(C(=O)O)CC4)cc3)cc2)c1NC(=O)OCc1ccccc1Cl [Compound 46]	50 to 500	50 to 500	
C[C@@H](OC(=O)Nc1c(-c2cc(Cl)c(-c3ccc(C4(C(=O)O)CC4)cc3)cc2F)cnn1C)c1ccccc1 [Compound 201]	< 50	< 50	
Cc1noc(-c2ccc3cc(C#CC4(C(=O)O)CC4)ccc3c2)c1NC(=O)O[C@H](C)c1ccccc1 [Compound 140]	< 50	< 50	
Cc1noc(-c2ccc3c(c2)CCc2cc(CC(=O)O)ccc2-3)c1NC(=O)O[C@H](C)c1ccccc1Cl [Compound 78]	50 to 500	50 to 500	
Cc1nsc(-c2ccc(-c3ccc(C4(C(=O)O)CC4)cc3)cc2)c1NC(=O)OCc1ccccc1 [Compound 45]	< 50	< 50	
Cc1nsc(C#Cc2ccc(C3(C(=O)O)CC3)cc2)c1NC(=O)O[C@H](C)c1ccccc1Cl [Compound 81]	< 50	< 50	
C[C@@H](OC(=O)Nc1ocnc1-c1ccc(-c2ccc(C3(C(=O)O)CC3)cc2)cc1)c1ccccc1Cl [Compound 147]	50 to 500	< 50	
O=C(Nc1ncoc1-c1ccc(-c2ccc(C3(C(=O)O)CC3)cc2)cc1)OCc1ccccc1 [Compound 145]		50 to 500	
Cc1nnn(-c2ccc(-c3ccc(C4(C(=O)O)CC4)cc3)cc2)c1NC(=O)OCc1ccccc1 [Compound 157]		50 to 500	
C[C@@H](OC(=O)Nc1ccn(-c2ccc(-c3ccc(C4(C(=O)O)CC4)cc3)cc2)n1)c1ccccc1 [Compound 163]		> 500	
Cc1noc(-c2ccc(-c3ccc(C(C(=O)O)c4ccccc4)cc3)cc2)c1NC(=O)O[C@H](C)c1ccccc1Cl (single isomer, unassigned) [Compound 16]		< 50	
O=C(O)Cc1ccc(N2CCN(C(=O)CCNC(=O)COc3ccccc3)CC2)cc1 [Compound 265]		> 500	
Cc1nsc(-c2ccc3c(c2)CCc2cc(C4(C(=O)O)CC4)ccc2-3)c1NC(=O)O[C@H](C)c1ccccc1Cl [Compound 249]		< 50	
O=C(O)Cc1ccc(N2CCN(C(=O)[C@@H](NC(=O)OCc3ccccc3)c3ccccc3)CC2)cc1 [Compound 268]		> 500	
C[C@@H](OC(=O)Nc1ccnn1-c1ccc(-c2ccc(C3(C(=O)O)CC3)cc2)cc1)c1ccccc1Cl [Compound 67]	< 50	< 50	

The next lines start with the values.

IC50 (Human LPA1 [1]) [nM]	EC50 (Human LPA1 [2]) [nM]	IC50 (Human LPA3) [nM]	SMILES
< 50	< 50	50 to 500	Cc1noc(-c2ccc(-c3ccc(C(C(=O)O)c4ccccc4)cc3)cc2)c1NC(=O)O[C@H](C)c1ccccc1Cl (single isomer, unassigned) [Compound 14]
< 50	< 50	> 500	Cc1nnn(-c2ccc(-c3ccc(C4(C(=O)O)CC4)cc3)cc2)c1NC(=O)O[C@H](C)c1ccccc1 [Compound 65]
50 to 500	< 50		Cc1nsc(-c2cc(Cl)c(-c3ccc(C4(C(=O)O)CC4)cc3)cc2F)c1NC(=O)O[C@H](C)c1ccccc1 [Compound 179]
50 to 500	< 50		C[C@@H](OC(=O)Nc1c(-c2cc(F)c(-c3ccc(C4(C(=O)O)CC4)cc3)cc2F)cnn1C)c1ccccc1 [Compound 200]
< 50	< 50	> 500	C[C@@H](OC(=O)Nc1c(-c2ccc(-c3ccc(C4(C(=O)O)CC4)cc3)cc2)cnn1C)c1ccccc1Cl [Compound 171]
50 to 500	< 50		Cc1ccccc1[C@@H](C)OC(=O)Nc1c(C)nsc1-c1ccc(-c2ccc(C3(C(=O)O)CC3)cc2)cc1 [Compound 86]
> 500	< 50		C[C@@H](OC(=O)Nc1c(-c2ccc(-c3ccc(C4(C(=O)O)CC4)cc3)cc2)oc2cc(F)ccc12)c1ccccc1Cl [Compound 61]
< 50	< 50		C[C@@H](OC(=O)Nc1scnc1-c1ccc(-c2ccc(C3(C(=O)O)CC3)cc2)cc1)c1ccccc1Cl [Compound 107]
50 to 500	< 50		Cc1noc(-c2ccc(-c3ccc(C4(C(=O)O)COC4)cc3)cc2)c1NC(=O)O[C@H](C)c1ccccc1 [Compound 80]
> 500	< 50		Cc1nsc(-c2ccc(-c3ccc(C(C(=O)O)c4ccccc4)cc3)cc2)c1NC(=O)O[C@H](C)c1ccccc1Cl (single isomer, unassigned) [Compound 70]
50 to 500	< 50		Cc1snc(-c2ccc(-c3ccc(C4(C(=O)O)CC4)cc3)cc2)c1NC(=O)O[C@H](C)c1ccccc1Cl [Compound 56]
50 to 500	< 50		Cc1nnn(-c2ccc(-c3ccc(C4(C(=O)O)CC4)cc3)cc2)c1NC(=O)O[C@H](C)c1ccccc1Cl [Compound 64]
< 50	< 50		Cc1onc(-c2ccc(-c3ccc(C4(C(=O)O)CC4)cc3)cc2)c1NC(=O)O[C@H](C)c1ccccc1Cl [Compound 30]
< 50	< 50		Cc1nsc(-c2cc(F)c(-c3ccc(C4(C(=O)O)CC4)cc3)cc2F)c1NC(=O)O[C@H](C)c1ccccc1 [Compound 182]
< 50	< 50		Cc1snc(-c2ccc(-c3ccc(C4(C(=O)O)CC4)cc3)cc2)c1NC(=O)O[C@H](C)c1ccccc1 [Compound 105]
< 50	< 50		Cc1nsc(-c2ccc(-c3ccc(C4(C(=O)O)CC4)cc3)cc2)c1NC(=O)O[C@H](C)c1ccccc1 [Compound 44]
50 to 500	< 50		Cc1noc(-c2ccc(-c3ccc(C4(C(=O)O)CCOCC4)cc3)cc2)c1NC(=O)O[C@H](C)c1ccccc1 [Compound 242]
< 50	< 50		Cc1nsc(-c2ccc(-c3ccc(C4(C(=O)O)CC4)cc3)c(F)c2)c1NC(=O)O[C@H](C)c1ccccc1 [Compound 185]
50 to 500	< 50		Cc1nsc(-c2ccc(-c3ccc(C4(C(=O)O)CC4)cc3)cc2)c1NC(=O)O[C@H](C)c1ccccc1F [Compound 83]
